In patent US4374841A, “Pyridoxine derivatives, and use in therapeutics” (S. A. Labaz N.V., priority 1980, dated 1983):
Structures can show the parent of a compound that is named as a salt. Where two headings read alike, the source gives them in different places.

Experiments:
α-receptors = test: Antiadrenergic properties: anti-α effect (reduction of epinephrine-increased blood-pressure); type: in vivo, dog; conditions: intravenous; for Anti-α effect: anaesthetized atropinized dog, epinephrine
Procedure: (§1) The purpose of this test was to determine the capacity of the compounds under study to reduce epinephrine-increased blood-pressure (anti-α effect) and epinephrine-accelerated heart-rate (anti-β effect) in the dog previously anaesthetized with pentobarbital (30 mg/kg) and atropinized (1 mg/kg).
After that, the dose of epinephrine so determined was administered followed by a dose, by intravenous route, of the compound to be studied. The percentage of reduction of hypertension produced by the compound under study in comparison with the hypertension previously obtained (about 100 mm.Hg) was then registered.
(§2) In both cases, the results were expressed as follows: […]
(§3) + for a <50%-reduction of the increase in pressure or cardiac frequency
(§4) ++ for a ≥50-reduction of the increase in pressure or cardiac frequency
(§5) +++ for the almost complete supression of the increase in pressure or cardiac frequency.

β-receptors = test: Antiadrenergic properties: anti-β effect (reduction of epinephrine-accelerated heart-rate); type: in vivo; conditions: intravenous, anaesthetized atropinized dog
Procedure: as §1
The percentage of reduction of the epinephrine-induced acceleration of heart-rate obtained by means of the compounds under study in comparison with the tachycardia previously measured (about 70 beats) was then registered.
as §2, §3, §4, §5

mice = test: Central depressant properties (passage of mice through a light ray); type: in vivo; conditions: intragastric, 30 minutes after administration, recorded over 15 minutes, dose with depressant action in 50% of the animals; for ED50: Mus musculus, po, 0.5 h, read-out: AD50 (the source's name)
Procedure: D. Central depressant properties
Thirty minutes after the intragastric administration of a dose of the compound to be studied, batches of mice were placed in a container through which a ray of light was projected. By means of a photoelectric cell, a record was made of the number of animals passing through the light ray over a period of 15 minutes. The same test was performed with control animals.
The AD50 was then calculated i.e. the dose of the compound under study which provoked a depressant action in 50% of the animals.

anaesthetized dog [1] = test: Hypotension in the anaesthetized dog; type: in vivo; conditions: intravenous
Procedure: (a) Hypotension in the anaesthetized dog
The hypotensive effect was determined for at least one hour after the intravenous injection of a dose of the compound under study in the dog previously anaesthetized with pentobarbital (30 mg/kg) and atropinized (1 mg/kg).
Arterial pression was registered on a femoral artery.
The results were expressed as follows: […]
++ for a lasting reduction of about 30% in arterial pressure
+ for a short-lived reduction of about 20% in arterial pressure.

anaesthetized dog [2] = test: Reserpine-like properties (cardiac frequency and contractility of the myocardium); type: in vivo; conditions: Canis lupus familiaris, 1 mg/kg, intravenous, anaesthetized dog
Excerpt: C. Reserpine-like properties
the increase in cardiac frequency
the increase of (dP/dt) at its maximum, i.e. the increase of the maximum of the derivative of the left ventricular pressure in relation to time.
This derivative thus represented an index of contractility.

[3] = (dP/dt) maximum, read-out: increase in the contractility of the myocardium
[4] = read-out: increase in cardiac frequency

“4,5-Dihydroxymethyl-3-(2-hydroxy-3-phenoxyethylamino-propoxy)-2-methyl-pyridine [C]” was tested, and the Anti-α effect (α-receptors; 10 mg/kg) was “+++” and the Anti-β effect (β-receptors; 10 mg/kg) was “+ (for a <50%-reduction of the increase in pressure or cardiac frequency)”.
With “4,5-Dihydroxymethyl-3-[2-hydroxy-3-(2-methoxy-phenoxyethylamino)-propoxy]-2-methyl-pyridine” the Anti-α effect (α-receptors; 10 mg/kg) was “++ (for a ≥50-reduction of the increase in pressure or cardiac frequency)”, the Anti-β effect (β-receptors; 10 mg/kg) was “+ (for a <50%-reduction of the increase in pressure or cardiac frequency)” and the AD50 (mice) was 33 mg/kg.
“4,5-Dihydroxymethyl-3-[2-hydroxy-3-(2-phenoxy-2-methyl-ethylamino)-propoxy]-2-methyl-pyridine [J]” was tested, and the Anti-α effect (α-receptors; 10 mg/kg) was “+++” and the AD50 (mice) was 47 mg/kg.
With “4,5-Dihydroxymethyl-3-[2-hydroxy-3-(2-phenyl-1-methyl-ethylamino)-propoxy]- 2-methyl-pyridine [B]” the Anti-α effect (α-receptors; 3.5 mg/kg) was “+++”, the Anti-β effect (β-receptors; 3.5 mg/kg) was “+++” and the “Decrease in arterial pressure” value (anaesthetized dog [1]; 3.5 mg/kg) was “+ (for a short-lived reduction of about 20% in arterial pressure)”.
For “4,5-Dihydroxymethyl-3-[2-hydroxy-3-(3,5-dimethyl-phenoxyethylamino)-propoxy]-2-methyl-pyridine”, the Anti-α effect (α-receptors; 10 mg/kg) was “++ (for a ≥50-reduction of the increase in pressure or cardiac frequency)” and the Anti-β effect (β-receptors; 10 mg/kg) was “++ (for a ≥50-reduction of the increase in pressure or cardiac frequency)”.
With “4,5-Dihydroxymethyl-3-[2-hydroxy-3-(3-methyl-phenoxyethylamino)-propoxy]-2- methyl-pyridine” the Anti-α effect (α-receptors; 7.5 mg/kg) was “+++”, the Anti-β effect (β-receptors; 7.5 mg/kg) was “+ (for a <50%-reduction of the increase in pressure or cardiac frequency)” and the “Decrease in arterial pressure” value (anaesthetized dog [1]; 10 mg/kg) was “+ (for a short-lived reduction of about 20% in arterial pressure)”.
For “4,5-Dihydroxymethyl-3-[3-(2,6-dimethyl-phenoxyethylamino)-2-hydroxy-propoxy]-2-methyl-pyridine [G]”, the Anti-α effect (α-receptors; 2 mg/kg) was “+++”, the Anti-β effect (β-receptors; 2 mg/kg) was “+ (for a <50%-reduction of the increase in pressure or cardiac frequency)” and the “Decrease in arterial pressure” value (anaesthetized dog [1]; 2 mg/kg) was “++ (for a lasting reduction of about 30% in arterial pressure)”.
For “4,5-Dihydroxymethyl-3-[3-(2-ethyl-phenoxyethylamino)-2-hydroxy-propoxy]-2-methyl-pyridine [F]”, the Anti-α effect (α-receptors; 10 mg/kg) was “+++”, the Anti-β effect (β-receptors; 10 mg/kg) was “++ (for a ≥50-reduction of the increase in pressure or cardiac frequency)” and the “Decrease in arterial pressure” value (anaesthetized dog [1]; 10 mg/kg) was “+ (for a short-lived reduction of about 20% in arterial pressure)”.
“4,5-Dihydroxymethyl-3-{2-hydroxy-3-[(3-phenyl-1-methyl-1-propyl)-amino]-propoxy}-2-methyl-pyridine” was tested, and the Anti-α effect (α-receptors; 10 mg/kg) was “+++” and the Anti-β effect (β-receptors; 10 mg/kg) was “++ (for a ≥50-reduction of the increase in pressure or cardiac frequency)”.
For Cc1ccc(OCCNCC(O)COc2c(C)ncc(CO)c2CO)cc1 (stereo not drawn) [Compound M, 4,5-Dihydroxymethyl-3-[2-hydroxy-3-(4-methyl-phenoxyethylamino)-propoxy]-2-methyl-pyridine], the Anti-α effect (α-receptors; 10 mg/kg) was “++ (for a ≥50-reduction of the increase in pressure or cardiac frequency)”, the Anti-β effect (β-receptors; 10 mg/kg) was 0 and the change in vivo at 1 mg/kg (anaesthetized dog [2]; [3]) was 10 to 30%. For the same molecule, the change in vivo at 1 mg/kg (anaesthetized dog [2]; [4]) was 10 to 30%.
In the case of COc1ccccc1OCCNCC(O)COc1c(C)ncc(CO)c1CO (stereo not drawn) [Compound U, 4,5-dihydroxymethyl-3-[2-hydroxy-3-(2-methoxy-phenoxyethylamino)-propoxy]-2-methyl-pyridine], the Anti-α effect (α-receptors; 10 mg/kg) was “+++”, the “prolonged α-antiadrenergic activity at a dose as low as” value (α-receptors; lowest active dose, dog, dihydrochloride) was 0.5 mg/kg and the Anti-β effect (β-receptors; 10 mg/kg) was “++ (for a ≥50-reduction of the increase in pressure or cardiac frequency)”.
For Cc1ccc(C(C)C)c(OCCNCC(O)COc2c(C)ncc(CO)c2CO)c1 (stereo not drawn) [L, 4,5-Dihydroxymethyl-3-[2-hydroxy-3-(2-isopropyl-5-methyl-phenoxyethylamino)-propoxy]-2-methyl-pyridine], the Anti-α effect (α-receptors; 10 mg/kg) was “+++”, the Anti-β effect (β-receptors; 10 mg/kg) was “++ (for a ≥50-reduction of the increase in pressure or cardiac frequency)” and the change in vivo at 1 mg/kg (anaesthetized dog [2]; [3]) was 10 to 30%. It also gave a change in vivo at 1 mg/kg (anaesthetized dog [2]; [4]) of 10 to 30% and an ED50 (mice) of 40 mg/kg.
CCCc1ccccc1OCCNCC(O)COc1c(C)ncc(CO)c1CO (stereo not drawn) [N, 4,5-Dihydroxymethyl-3-[2-hydroxy-3-(2-n-propyl-phenoxyethylamino)-propoxy]-2-methyl-pyridine] was tested, and the Anti-α effect (α-receptors; 7 mg/kg) was “+++”, the Anti-β effect (β-receptors; 7 mg/kg) was “++ (for a ≥50-reduction of the increase in pressure or cardiac frequency)” and the ED50 (mice) was 42 mg/kg.
With Cc1ncc(CO)c(CO)c1OCC(O)CNCCOc1ccccc1C(C)C (stereo not drawn) [P, 4,5-Dihydroxymethyl-3-[2-hydroxy-3-(2-isopropyl-phenoxyethylamino)-propoxy]-2-methyl-pyridine] the Anti-α effect (α-receptors; 2 mg/kg) was “+++”, the Anti-β effect (β-receptors; 2 mg/kg) was “++ (for a ≥50-reduction of the increase in pressure or cardiac frequency)” and the change in vivo at 1 mg/kg (anaesthetized dog [2]; [3]) was 10 to 30%. The change in vivo at 1 mg/kg (anaesthetized dog [2]; [4]) was 10 to 30% and the ED50 (mice) was 42 mg/kg.
CNC(=O)OCc1cnc(C)c(OCC(O)CNCCOc2ccccc2C)c1COC(=O)NC (stereo not drawn) [Q, 4,5-Di-(N-methylcarbamoyloxymethyl)-3-[2-hydroxy-3-(2-methyl-phenoxyethylamino)-propoxy]-2-methyl-pyridine] was tested, and the Anti-α effect (α-receptors; 10 mg/kg) was “+++” and the Anti-β effect (β-receptors; 10 mg/kg) was 0.
CNC(=O)OCc1cnc(C)c(OCC(O)CNCCOc2ccccc2)c1COC(=O)NC (stereo not drawn) [R, 4,5-Di-(N-methylcarbamoyloxymethyl)-3-(2-hydroxy-3-phenoxyethylamino-propoxy)-2-methyl-pyridine] was tested, and the Anti-α effect (α-receptors; 10 mg/kg) was “++ (for a ≥50-reduction of the increase in pressure or cardiac frequency)” and the Anti-β effect (β-receptors; 10 mg/kg) was 0.
For Cc1ncc(CO)c(CO)c1OCC(O)CNCCOc1ccccc1C(C)C (stereo not drawn) [S, 4,5-Dihydroxymethyl-3-[2-hydroxy-3-(2-isopropyl-phenoxyethylamino)-propoxy]-2-methyl-pyridine], the Anti-α effect (α-receptors; 10 mg/kg) was “+++” and the Anti-β effect (β-receptors; 10 mg/kg) was “++ (for a ≥50-reduction of the increase in pressure or cardiac frequency)”.
With Cc1ccc(OCCCNCC(O)COc2c(C)ncc(CO)c2CO)cc1C (stereo not drawn) [T, 4,5-Dihydroxymethyl-3-[2-hydroxy-3-(3,4-dimethyl-phenoxypropylamino)-propoxy]-2-methyl-pyridine] the Anti-α effect (α-receptors; 10 mg/kg) was “++ (for a ≥50-reduction of the increase in pressure or cardiac frequency)” and the Anti-β effect (β-receptors; 10 mg/kg) was “++ (for a ≥50-reduction of the increase in pressure or cardiac frequency)”.
For Cc1ncc(CO)c(CO)c1OCC(O)CNCCOc1ccc(Cl)cc1 (stereo not drawn) [W, 4,5-Dihydroxymethyl-3-[2-hydroxy-3-(4-chloro-phenoxyethylamino)-propoxy]-2-methyl-pyridine], the Anti-α effect (α-receptors; 10 mg/kg) was “++ (for a ≥50-reduction of the increase in pressure or cardiac frequency)” and the Anti-β effect (β-receptors; 10 mg/kg) was “+ (for a <50%-reduction of the increase in pressure or cardiac frequency)”.
For COc1ccc(CCNCC(O)COc2c(C)ncc(CO)c2CO)cc1OC.O=C(O)C(=O)O.O=C(O)C(=O)O (stereo not drawn) [X, 4,5-Dihydroxymethyl-3-[3-(3,4-dimethoxy-phenethylamino)-2-hydroxy-propoxy]-2-methyl-pyridine dioxalate], the “Decrease in arterial pressure” value (anaesthetized dog [1]; 10 mg/kg) was “+ (for a short-lived reduction of about 20% in arterial pressure)”.
Cc1ncc(CO)c(CO)c1OCC(O)CNCCc1ccccc1 (stereo not drawn) [Z, 4,5-Dihydroxymethyl-3-(2-hydroxy-3-phenylethyl-amino-propoxy)-2-methyl-pyridine oxalate] was tested, and the change in vivo at 1 mg/kg (anaesthetized dog [2]; [3]) was 10 to 30%, the change in vivo at 1 mg/kg (anaesthetized dog [2]; [4]) was 10 to 30% and the ED50 (mice) was 33 mg/kg.
